Measured values reported in the supplement of paper PMC11208160.

Test: recombinant UMI read abundance after kanamycin selection (control-corrected) (log10(CPM+1)); higher = more efficient recombination; extreme values may be limits of the assay; sequences stand for … in AGTGCAGAGAAAATCGGCCAGTTTTCTCTGCCTGCAGTCCGCATGCCGTGGGACCCCTTGGGTTCTAACCTGTTGCCTAGATTTATGCAGCGGACTGCCTTTCTCCCAAAGTGATAAACCGG…AGGTTGGTTTCACT; site = the 11-nt donor
Outline: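 Two replicates each of selected and unselected plating were used in this pooled Escherichia coli screen of donor and donor-binding-loop pairs for the IS621 bridge recombinase. Selection was with IPTG (0.07 mM) and kanamycin. Counts of recombinant UMIs, amplified across the donor–target junction, were converted to CPM, averaged, scaled by control-derived factors and reported as log10(CPM+1).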
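Further: IS621 bridge recombinase in Escherichia coli cells against a fixed T5 target plasmid.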

Sequence	recombinant UMI read abundance (log10)
GCGAAACCATGGACCGGTTTTCCCGGTAATCCGTATTTGGG (site GCGAAGCCTCC)	0.0136
GCGAAACCATGGACCGGTTTTCCCGGTAATCCGTATTTGGG (site GCGAATCCTCC)	0
GCGAAACCATGGACCGGTTTTCCCGGTAATCCGTATTTGTG (site GCGAAACCTCA)	0
GCGAACCCATGGACCGGTTTTCCCGGTAATCCGTATTTGAA (site GCGAACCCTTT)	2.49
GCGAACGCATGGACCGGTTTTCCCGGTAATCCGTATTTGCT (site GCGAACGCTAG)	2.26
GCGAAGACATGGACCGGTTTTCCCGGTAATCCGTATTTGTT (site GCGAAGACTAA)	2.37
GCGAAGCCATGGACCGGTTTTCCCGGTAATCCGTATTTGAG (site GCGAAGCCTCA)	0.0311
GCGAAGCCATGGACCGGTTTTCCCGGTAATCCGTATTTGAG (site GCGAAGCCTCC)	0.0267
GCGAAGCCATGGACCGGTTTTCCCGGTAATCCGTATTTGAG (site GCGAAGCCTCG)	0
GCGAAGCCATGGACCGGTTTTCCCGGTAATCCGTATTTGAG (site GCGAAGCCTCT)	0.00807
GCGAAGCCATGGACCGGTTTTCCCGGTAATCCGTATTTGGG (site ACGAAGCCTCC)	0.0189
GCGAAGCCATGGACCGGTTTTCCCGGTAATCCGTATTTGGG (site CCGAAGCCTCC)	0.0227
GCGAAGCCATGGACCGGTTTTCCCGGTAATCCGTATTTGGG (site GAGAAGCCTCC)	0.00349
GCGAAGCCATGGACCGGTTTTCCCGGTAATCCGTATTTGGG (site GCAAAGCCTCC)	0.00547
GCGAAGCCATGGACCGGTTTTCCCGGTAATCCGTATTTGGG (site GCCAAGCCTCC)	0
GCGAAGCCATGGACCGGTTTTCCCGGTAATCCGTATTTGGG (site GCGAAACCTCC)	0

Sequence	recombinant UMI read abundance (log10)
GCGAAGCCATGGACCGGTTTTCCCGGTAATCCGTATTTGGG (site GCGAACCCTCC)	0
GCGAAGCCATGGACCGGTTTTCCCGGTAATCCGTATTTGGG (site GCGAAGACTCC)	0.0597
GCGAAGCCATGGACCGGTTTTCCCGGTAATCCGTATTTGGG (site GCGAAGCCTAC)	0
GCGAAGCCATGGACCGGTTTTCCCGGTAATCCGTATTTGGG (site GCGAAGCCTCA)	0.00806
GCGAAGCCATGGACCGGTTTTCCCGGTAATCCGTATTTGGG (site GCGAAGCCTCC)	0.00509
GCGAAGCCATGGACCGGTTTTCCCGGTAATCCGTATTTGGG (site GCGAAGCCTCG)	0
GCGAAGCCATGGACCGGTTTTCCCGGTAATCCGTATTTGGG (site GCGAAGCCTCT)	0.00749
GCGAAGCCATGGACCGGTTTTCCCGGTAATCCGTATTTGGG (site GCGAAGCCTGC)	0
GCGAAGCCATGGACCGGTTTTCCCGGTAATCCGTATTTGGG (site GCGAAGCCTTC)	0.0136
GCGAAGCCATGGACCGGTTTTCCCGGTAATCCGTATTTGGG (site GCGAAGGCTCC)	0
GCGAAGCCATGGACCGGTTTTCCCGGTAATCCGTATTTGGG (site GCGAAGTCTCC)	0.00693
GCGAAGCCATGGACCGGTTTTCCCGGTAATCCGTATTTGGG (site GCGAATCCTCC)	0.0162
GCGAAGCCATGGACCGGTTTTCCCGGTAATCCGTATTTGGG (site GCGACGCCTCC)	0.00657
GCGAAGCCATGGACCGGTTTTCCCGGTAATCCGTATTTGGG (site GCGAGGCCTCC)	0.0307
GCGAAGCCATGGACCGGTTTTCCCGGTAATCCGTATTTGGG (site GCGATGCCTCC)	0
GCGAAGCCATGGACCGGTTTTCCCGGTAATCCGTATTTGGG (site GCGCAGCCTCC)	0.011
